For assay [1], the target named is T1, BACE1 (beta-secretase 1) (Homo sapiens, UniProt P56817).
T1 construct: commercial BACE1 enzyme (Sigma); amine-coupled on CM5 chip for SPR, free enzyme in FRET assay
Briefly: SPR (Biacore T200, steady-state affinity). The assay is classed as binding.

Assay [2] addresses T1, BACE1 (beta-secretase 1). The assay is described as follows: FRET substrate cleavage assay (Sigma kit). The assay is classed as biochemical.
In assay [3] the target is T2, Aβ1-42 (amyloid-β1-42) oligomer (Homo sapiens, UniProt P05067).
T2 construct: gene APP; commercial 42-residue peptide (Sigma), cut from amyloid precursor protein (APP residues 672-713); oligomer, amine-coupled on CM5 chip
T2 sequence (P05067 672-713): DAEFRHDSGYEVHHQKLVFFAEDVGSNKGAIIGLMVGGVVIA
The assay is described as follows: SPR (Biacore T200, steady-state affinity). It counts as binding.

T1 sequence (P56817 46-501): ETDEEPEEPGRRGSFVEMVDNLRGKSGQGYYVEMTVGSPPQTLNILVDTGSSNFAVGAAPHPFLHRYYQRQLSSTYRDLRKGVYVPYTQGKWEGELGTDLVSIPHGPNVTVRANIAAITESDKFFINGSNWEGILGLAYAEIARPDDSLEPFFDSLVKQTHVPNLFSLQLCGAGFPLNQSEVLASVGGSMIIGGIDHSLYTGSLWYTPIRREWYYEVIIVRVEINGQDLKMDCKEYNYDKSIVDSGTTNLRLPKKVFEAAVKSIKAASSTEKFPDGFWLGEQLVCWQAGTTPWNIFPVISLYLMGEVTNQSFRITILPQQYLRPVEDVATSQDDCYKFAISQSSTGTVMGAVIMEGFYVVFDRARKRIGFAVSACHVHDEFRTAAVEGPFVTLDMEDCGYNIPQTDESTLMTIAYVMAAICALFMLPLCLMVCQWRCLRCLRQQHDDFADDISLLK

Take `COc1ccc2cc3[n+](cc2c1OC)CCc1cc2c(cc1-3)OCO2` [berberine]: the Kd in assay [1] came out at 1.26 µM; in assay [3], 1.49 µM. The IC50 in assay [2] worked out at 63 µM.
